Laboratory results from patent US8476064B2, “Inhibition assay method and device for detection of antibiotics” (Charm Sciences, Inc., priority 2006, dated 2013).

Legend:
B.st. spores [1] = assay: Antibiotic detection test in spiked milk, borate/succinate culture of Example 6 (Table 4); type: cell-based, Bacillus (Geobacillus) Stearothermophilus; set-up: key to Color 1 / Color 2: Color result 1 and 2 is a negative result; Color result 1 and 2 is a negative result; 3 is a borderline result; 4 and 5 is a positive result; 4 and 5 is a positive result; details: for % Pos (Color 2) / Color 2: after 16 hours at room temperature; for % Pos (Color 1) / Color 1: immediately after test completion
Description: BCP/Borate/Succinate Solution was prepared by adding 3.8 grams of Borate and 6 grams Succinate to 100 mL of reverse osmosis/deionized water (RO/DI Water) in 125 mL flask. 50 milligrams of BCP was added to a 50 mL conical tube and 5 mL of Borate/Succinate solution was added to the 50 milligrams BCP and mixed.
To prepare media 5 grams glucose and 1 gram Mueller Hinton Broth was dissolved in 100 mL RO/DI Water. 1.2 mL of a 0.01 mg/mL solution of trimethoprim in RO/DI Water was prepared and added to the media. A 20 mL of BCP/Borate/Succinate was added to the media and the media was sterile filtered through a 0.45 micron filter and then cooled to 4 degrees C.
Agar was prepared by combining 0.3 grams Difco Bacto-Agar (Item #0140-01), 0.225 NaCl and 17.485 RO/DI Water. The mixture was heated to 95° C. and then removed from the heat and allowed to cool to 75° C. Next 6 mL of media (prepared as described above with BCP/Tris) was added to the agar and mixed for 5 minutes. The mixture was cooled to 57° C. and 1 mL spore solution (concentration of 1 billion cfu/mL) was added and mixed together for 5 minutes. 0.200 mL was dispensed into the bottom of each of the vials.
In test operation 200 microliters of various milk sample, spiked with known concentrations of antibiotics, were pipetted into test vials and incubated for the prescribed time (in this test 2 hours 10 minutes) and prescribed temperature (64 degrees C.+/−2 degrees C.). Incubation was in the Charm I Inctronic incubator. Results were recorded immediately after test completion (Color 1) and after being left at room temperature for 16 hours (Color 2). Results listed are in parts per billion (ppb). 4 samples were run at each concentrations except for raw negative milk (16 samples) and 3 ppb pen G (2 samples) and amoxicillin (2 samples). Abbreviations are penicillin G (PenG); sulfamethazine (SMZ); sulfadimethoxine (SDM); tylosin (TY); gentamicin (G); oxytetracycline (OT); pirlimycin (Pirl); amoxicillin (Amox); ampicillin (Amp); cloxacillin (Clox); ceftiofur sodium (Ceft); cephaprin (Ceph); tilmicosin (Til); sulfadoxine (SDN); neomycin (Neo). Color result 1 and 2 is a negative result, 3 is a borderline result and 4 and 5 is a positive result.

B.st. spores [2] = assay: Single service kidney swab microbial growth inhibition test, culture of Example 1, with or without beta-lactam receptor; type: cell-based, Bacillus (Geobacillus) Stearothermophilus; details: 12.5 ppb penicillin G; Receptor added dried on swab

CN(C)[C@@H]1C(O)=C(C(N)=O)C(=O)[C@@]2(O)C(O)=C3C(=O)c4c(O)cccc4[C@@](C)(O)[C@H]3[C@H](O)[C@@H]12 [OT, oxytetracycline]
% Pos (Color 2) (B.st. spores [1]; milk spiked at 200 ppb): 0%
Color 2 (B.st. spores [1]; milk spiked at 200 ppb): 2
% Pos (Color 1) (B.st. spores [1]; milk spiked at 200 ppb): 0%
Color 1 (B.st. spores [1]; milk spiked at 200 ppb): 2
% Pos (Color 2) (B.st. spores [1]; milk spiked at 300 ppb): 100%
Color 2 (B.st. spores [1]; milk spiked at 300 ppb): 4
% Pos (Color 1) (B.st. spores [1]; milk spiked at 300 ppb): 100%
Color 1 (B.st. spores [1]; milk spiked at 300 ppb): 5

CC1(C)S[C@@H]2[C@H](NC(=O)Cc3ccccc3)C(=O)N2[C@H]1C(=O)O [PenG, penicillin G]
test result (B.st. spores [2]): −
% Pos (Color 2) (B.st. spores [1]; milk spiked at 3 ppb): 100%
Color 2 (B.st. spores [1]; milk spiked at 3 ppb): 5
% Pos (Color 1) (B.st. spores [1]; milk spiked at 3 ppb): 100%
Color 1 (B.st. spores [1]; milk spiked at 3 ppb): 5
% Pos (Color 2) (B.st. spores [1]; milk spiked at 4 ppb): 100%
Color 2 (B.st. spores [1]; milk spiked at 4 ppb): 5
% Pos (Color 1) (B.st. spores [1]; milk spiked at 4 ppb): 100%
Color 1 (B.st. spores [1]; milk spiked at 4 ppb): 5

COc1cc(NS(=O)(=O)c2ccc(N)cc2)nc(OC)n1 [SDM, sulfadimethoxine]
% Pos (Color 2) (B.st. spores [1]; milk spiked at 25 ppb): 100%
Color 2 (B.st. spores [1]; milk spiked at 25 ppb): 5
% Pos (Color 1) (B.st. spores [1]; milk spiked at 25 ppb): 100%
Color 1 (B.st. spores [1]; milk spiked at 25 ppb): 4
% Pos (Color 2) (B.st. spores [1]; milk spiked at 50 ppb): 100%
Color 2 (B.st. spores [1]; milk spiked at 50 ppb): 5
% Pos (Color 1) (B.st. spores [1]; milk spiked at 50 ppb): 100%
Color 1 (B.st. spores [1]; milk spiked at 50 ppb): 5

Cc1cc(C)nc(NS(=O)(=O)c2ccc(N)cc2)n1 [SMZ, sulfamethazine]
% Pos (Color 2) (B.st. spores [1]; milk spiked at 100 ppb): 100%
Color 2 (B.st. spores [1]; milk spiked at 100 ppb): 5
% Pos (Color 1) (B.st. spores [1]; milk spiked at 100 ppb): 100%
Color 1 (B.st. spores [1]; milk spiked at 100 ppb): 5
% Pos (Color 2) (B.st. spores [1]; milk spiked at 200 ppb): 100%
Color 2 (B.st. spores [1]; milk spiked at 200 ppb): 4
% Pos (Color 1) (B.st. spores [1]; milk spiked at 200 ppb): 100%
Color 1 (B.st. spores [1]; milk spiked at 200 ppb): 5

CC[C@H]1OC(=O)C[C@@H](O)[C@H](C)[C@@H](O[C@@H]2O[C@H](C)[C@@H](O[C@H]3C[C@@](C)(O)[C@@H](O)[C@H](C)O3)[C@H](N(C)C)[C@H]2O)[C@@H](CC=O)C[C@@H](C)C(=O)/C=C/C(C)=C/[C@@H]1CO[C@@H]1O[C@H](C)[C@@H](O)[C@@H](OC)[C@H]1OC [TY, tylosin]
% Pos (Color 2) (B.st. spores [1]; milk spiked at 40 ppb): 100%
Color 2 (B.st. spores [1]; milk spiked at 40 ppb): 4
% Pos (Color 1) (B.st. spores [1]; milk spiked at 40 ppb): 100%
Color 1 (B.st. spores [1]; milk spiked at 40 ppb): 5
% Pos (Color 2) (B.st. spores [1]; milk spiked at 50 ppb): 100%
Color 2 (B.st. spores [1]; milk spiked at 50 ppb): 5
% Pos (Color 1) (B.st. spores [1]; milk spiked at 50 ppb): 100%
Color 1 (B.st. spores [1]; milk spiked at 50 ppb): 5

gentamicin
% Pos (Color 2) (B.st. spores [1]; milk spiked at 300 ppb): 100%
Color 2 (B.st. spores [1]; milk spiked at 300 ppb): 4
% Pos (Color 1) (B.st. spores [1]; milk spiked at 300 ppb): 100%
Color 1 (B.st. spores [1]; milk spiked at 300 ppb): 4
% Pos (Color 2) (B.st. spores [1]; milk spiked at 400 ppb): 100%
Color 2 (B.st. spores [1]; milk spiked at 400 ppb): 5
% Pos (Color 1) (B.st. spores [1]; milk spiked at 400 ppb): 100%
Color 1 (B.st. spores [1]; milk spiked at 400 ppb): 5
